Assay results taken from ChEMBL document CHEMBL4152310, “Design and synthesis of novel benzenesulfonamide containing 1,2,3-triazoles as potent human carbonic anhydrase isoforms I, II, IV and IX inhibitors” (Eur J Med Chem, 2018).

The molecules below were run against Carbonic anhydrase 9 (Homo sapiens, UniProt Q16790) (assay: Binding affinity to human carbonic anhydrase 9 by stopped flow CO2 hydration assay).

Row | SMILES | Ki
1 | NS(=O)(=O)c1ccc(-n2cc(C(=O)c3ccc(Br)cc3)nn2)cc1 | 44.7 nM
2 | NS(=O)(=O)c1ccc(-n2nnc(C(=O)c3ccc4ccccc4c3)c2C(F)(F)F)cc1 | 248 nM
3 | NS(=O)(=O)c1ccc(-n2cc(C(=O)c3ccc(F)cc3)nn2)cc1 | 47.8 nM
4 | NS(=O)(=O)c1ccc(-n2cc(C(=O)c3cccs3)nn2)cc1 | 362 nM
5 | Cc1ccc(C(=O)c2cn(-c3ccc(S(N)(=O)=O)cc3)nn2)cc1 | 324 nM
6 | NS(=O)(=O)c1ccc(-n2cc(C(=O)c3ccccc3)nn2)cc1 | 136 nM
7 | NS(=O)(=O)c1ccc(-n2cc(C(=O)c3ccc4ccccc4c3)nn2)cc1 | 127 nM
8 | NS(=O)(=O)c1ccc(-n2nnc(C(=O)c3ccco3)c2C(F)(F)F)cc1 | 190 nM
9 | NS(=O)(=O)c1ccc(-n2nnc(C(=O)c3ccccn3)c2C(F)(F)F)cc1 | 156 nM
10 | NS(=O)(=O)c1ccc(-n2cc(C(=O)c3ccc(Cl)cc3)nn2)cc1 | 27.3 nM
11 | NS(=O)(=O)c1ccc(-n2cc(C(=O)c3ccco3)nn2)cc1 | 217 nM
12 | NS(=O)(=O)c1ccc(-n2nnc(C(=O)c3cccs3)c2C(F)(F)F)cc1 | 45.4 nM
13 | NS(=O)(=O)c1ccc(-n2cc(C(=O)c3ccccn3)nn2)cc1 | 182 nM
14 | COc1ccc(C(=O)c2cn(-c3ccc(S(N)(=O)=O)cc3)nn2)cc1 | 145 nM

Second part, the molecule after the results:

Row | Ki | SMILES
15 | 141 nM | COc1ccc(C(=O)c2nnn(-c3ccc(S(N)(=O)=O)cc3)c2C(F)(F)F)cc1
16 | 39.8 nM | NS(=O)(=O)c1ccc(-n2nnc(C(=O)c3ccccc3)c2C(F)(F)F)cc1
17 | 48.2 nM | NS(=O)(=O)c1ccc(-n2nnc(C(=O)c3ccc(Cl)cc3)c2C(F)(F)F)cc1
18 | 35.8 nM | NS(=O)(=O)c1ccc(-n2nnc(C(=O)c3ccc(Br)cc3)c2C(F)(F)F)cc1
19 | 144 nM | Cc1ccc(C(=O)c2nnn(-c3ccc(S(N)(=O)=O)cc3)c2C(F)(F)F)cc1
20 | 38.1 nM | NS(=O)(=O)c1ccc(-n2nnc(C(=O)c3ccc(F)cc3)c2C(F)(F)F)cc1
